The Bradley open melting point set (2014)

SMILES	melting point [°C]
CCOC1OC(C(N)=O)=CCC1Br (configuration not stated) [3-bromo-2-ethoxy-3,4-dihydro-2H-pyran-6-carboxamidato]	142
[O-][n+]1cccc(Br)c1 [3-bromopyridine n-oxide]	35
O=C(CCCl)c1ccc(F)cc1 [3-chloro-4'-fluoropropiophenone]	48
O=Cc1ccc(F)c(Cl)c1 [3-chloro-4-fluorobenzaldehyde]	27
COc1cc(Cl)cc(B(O)O)c1 [3-chloro-5-methoxybenzeneboronic acid]	187
O=C(O)c1sc2ccccc2c1Cl [3-chlorobenzo[b]thiophene-2-carboxylic acid]	266
O=C(c1ccccc1)c1cccc(Cl)c1 [3-chlorobenzophenone]	83
Oc1cccc(Cl)c1 [3-chlorophenol]	32.5
O=C(O)COc1cccc(Cl)c1 [3-chlorophenoxyacetic acid]	108
N#Cc1cccc(C=O)c1 [3-cyanobenzaldehyde] [listing 1 of 2 here]	77
N#Cc1cccc(C=O)c1 [3-cyanobenzaldehyde] [listing 2 of 2 here]	77
N#Cc1ccc[n+]([O-])c1 [3-cyanopyridine 1-oxide]	177
CCC1(OC(C)=O)CCC2(C)C(CCC3C4CCC(=O)C4(C)CCC32)C1 (configuration not stated) [3-ethyl-17-oxoandrostan-3-yl acetate]	126
CCCCC(=O)CC [3-heptanone]	-37
COc1ccc(-c2oc3c(OC)c(OC)ccc3c(=O)c2O)cc1 [3-hydroxy-4',7,8-trimethoxyflavone]	198
Cc1ccc(C)c2c1C(=O)OC2O (configuration not stated) [3-hydroxy-4,7-dimethyl-2-benzofuran-1(3H)-one]	158
C[C@]12CCC(O)CC1=CC(=O)[C@@H]1[C@@H]2CC[C@]2(C)C(=O)CC[C@@H]12 (some centres not stated) [3-hydroxyandrost-5-ene-7,17-dione]	238
O=C(O)CCI [3-iodopropionic acid]	82
COc1cc(N)ccc1C [3-methoxy-4-methylaniline]	58
C=CC(C)CC (configuration not stated) [3-methyl-1-pentene]	-153
CC1=CC(O)(c2ccccc2)c2ccccc21 (configuration not stated) [3-methyl-1-phenyl-1H-inden-1-ol]	76
CC(=O)C(C)C [3-methyl-2-butanone]	-92

SMILES	melting point [°C]
CC(C)CC(=O)O [3-methylbutanoic_acid]	-30
CCC(C)CC [3-methylpentane]	-118
CCC(C)CC(=O)O (configuration not stated) [3-methylvaleric acid]	-42
O=Cc1ccc(N2CCCC2)c([N+](=O)[O-])c1 [3-nitro-4-(1-pyrrolidinyl)benzaldehyde]	103
O=[N+]([O-])c1cccc(CBr)c1 [3-nitrobenzyl_bromide]	59
O=[N+]([O-])c1cccc(O)c1 [3-nitrophenol]	96
O=C=Nc1cccc([N+](=O)[O-])c1 [3-nitrophenyl isocyanate]	52
O=[N+]([O-])c1cccc(N=C=S)c1 [3-nitrophenyl isothiocyanate]	57
C=Cc1cccc([N+](=O)[O-])c1 [3-nitrostyrene]	-5
CCCCCC(O)CC (configuration not stated) [3-octanol] [listing 1 of 2 here]	-45
CCCCCC(O)CC (configuration not stated) [3-octanol] [listing 2 of 2 here]	-45
CC(=O)OC1CCC2C3CCC4=CC(=O)CCC4(C)C3CCC12C (configuration not stated) [3-oxoandrost-4-en-17-yl acetate]	140
OB(O)c1cccc(Oc2ccccc2)c1 [3-phenoxybenzeneboronic acid]	141
N#CCCc1ccccc1 [3-phenylpropionitrile]	-2
CC(C)(C)c1ccc2c(c1)OCCOCCOc1cc(C(C)(C)C)ccc1OCCOCCO2 [4',4''(5'')-di-tert-butyldibenzo-18-crown-6]	110
CC(=O)c1ccc(C(F)(F)F)cc1 [4'-(trifluoromethyl)acetophenone]	32
CC(=O)Nc1ccc(Br)cc1OC(F)(F)F [4'-bromo-2'-(trifluoromethoxy)acetanilide]	136
CC(=O)Nc1ccc(Br)cc1C [4'-bromo-2'-methylacetanilide]	156
CC(=O)Nc1ccc(Cl)cc1C [4'-chloro-2'-methylacetanilide]	140
Clc1cc(-c2ccccn2)nc(-c2ccccn2)c1 [4'-chloro-2,2':6',2''-terpyridine]	150
CC(=O)c1ccc(Cl)cc1 [4'-chloroacetophenone]	19
OC(c1ccc(Cl)cc1)(c1ccc(Cl)cc1)c1ccc(Cl)cc1 [4,4',4''-trichlorotrityl alcohol]	96

SMILES	melting point [°C]
CC/C(=C(/CC)c1ccc(O)cc1)c1ccc(O)cc1 [4,4'-(3E)-Hex-3-ene-3,4-diyldiphenol]	170
ClC(Cl)=C(c1ccc(Cl)cc1)c1ccc(Cl)cc1 [4,4'-DDE]	89
Clc1ccc(C(c2ccc(Cl)cc2)C(Cl)(Cl)Cl)cc1 [4,4'-DDT]	110
Cc1ccc(CCc2ccc(C)cc2)cc1 [4,4'-Dimethylbibenzyl]	78
c1cc(-c2ccncc2)ccn1 [4,4'-bipyridine]	113
Cc1ccc(C)c(/C=C/c2ccc(-c3ccc(/C=C/c4cc(C)ccc4C)cc3)cc2)c1 [4,4'-bis(2,5-dimethylstyryl)biphenyl]	198
CC(=O)Oc1ccc(-c2ccc(OC(C)=O)cc2)cc1 [4,4'-diacetoxybiphenyl]	164
O=C(c1ccc(F)cc1)c1ccc(F)cc1 [4,4'-difluorobenzophenone]	108
Cc1ccc(-c2ccc(C)cc2)cc1 [4,4'-dimethylbiphenyl]	121
O=C(CC(=O)C(F)(F)F)c1ccco1 [4,4,4-trifluoro-1-(2-furyl)-1,3-butanedione]	21
CC1(C)C(=O)OOC1=O [4,4-dimethyl-1,2-dioxolane-3,5-dione]	45
O=C1OC(=O)c2c(Cl)c(Cl)c(Cl)c(Cl)c21 [4,5,6,7-Tetrachloro-2-benzofuran-1,3-dione]	256
Brc1ccnc(-c2ccc(Br)nc2)c1 [4,6'-dibromo-2,3'-bipyridine]	129
CC1=CC(C)=NC2N=NC(N)=C12 (configuration not stated) [4,6-Dimethyl-2H-pyrazolo[3,4-b]pyridin-3-amine]	280
Nc1c(Br)cc(Br)c(Cl)c1Cl [4,6-dibromo-2,3-dichloroaniline]	97
C1=NN=C2CSCC12 (configuration not stated) [4,6-dihydro-1H-thieno[3,4-c]pyrazole]	133
Clc1ccc2c(Cl)ccnc2c1 [4,7-dichloroquinoline]	85
CC(CC(=O)O)c1ccc(C(=O)O)cc1 (configuration not stated) [4-(2-carboxy-1-methylethyl)benzoic acid]	225
O=C(O)CCc1ccc(B(O)O)cc1 [4-(2-carboxyethyl)benzeneboronic acid]	147
OCCN1CCOCC1 [4-(2-hydroxyethyl)morpholine]	2

Other lines, results leading:

melting point [°C]	SMILES
200	Cc1ccc(C(=O)O)cc1Br [3-bromo-4-methylbenzoic_acid]
156	NS(=O)(=O)c1cccc(Br)c1 [3-bromobenzenesulfonamide]
-27	Brc1cccnc1 [3-bromopyridine]
128	OB(O)c1ccnc(F)c1Cl [3-chloro-2-fluoropyridine-4-boronic acid]
22	Cc1c(Cl)cccc1C#N [3-chloro-2-methylbenzonitrile]
130	O=Cc1ccc(O)c(Cl)c1 [3-chloro-4-hydroxybenzaldehyde]
148	N#Cc1ccc(O)c(Cl)c1 [3-chloro-4-hydroxybenzonitrile]
183	OB(O)c1cccc(Cl)c1 [3-chlorobenzeneboronic acid]
-48	Cc1cccc(Cl)c1 [3-chlorotoluene]
82	N#Cc1cccc(O)c1 [3-cyanophenol]
-4	CCc1cccc(O)c1 [3-ethylphenol]
132	O=C(O)Cc1ccc(O)c(F)c1 [3-fluoro-4-hydroxyphenylacetic acid]
234	Cc1ccc(B(O)O)cc1F [3-fluoro-4-methylbenzeneboronic acid]
214	OB(O)c1cccc(F)c1 [3-fluorobenzeneboronic acid]
12	Oc1cccc(F)c1 [3-fluorophenol]
46	O=C(O)Cc1cccc(F)c1 [3-fluorophenylacetic acid]
111	O=Cc1cccc(B(O)O)c1 [3-formylbenzeneboronic acid]

melting point [°C]	SMILES
168	Cc1ncccc1O [3-hydroxy-2-methylpyridine]
89	CC(=O)c1cccc(O)c1 [3-hydroxyacetophenone]
105	O=Cc1cccc(O)c1 [3-hydroxybenzaldehyde]
209	OB(O)c1cccc(O)c1 [3-hydroxybenzeneboronic acid]
203	O=C(O)c1cccc(O)c1 [3-hydroxybenzoic_acid]
41	Oc1cccc(I)c1 [3-iodophenol]
133	COc1cccc(C(N)=O)c1 [3-methoxybenzamide]
160	COc1cccc(B(O)O)c1 [3-methoxybenzeneboronic acid]
142	Cc1n[nH]cc1-c1ccccc1 [3-methyl-4-phenyl-1h-pyrazole]
126	Cc1cc(-c2ccccc2)[nH]n1 [3-methyl-5-phenyl-1h-pyrazole]
161	Cc1cccc(B(O)O)c1 [3-methylbenzeneboronic acid]
-41	Cc1cccc(C(C)(C)C)c1 [3-tert-butyltoluene]
52	COc1cc(C(C)=O)ccc1F [4'-fluoro-3'-methoxyacetophenone]
114	COc1cc(C(C)=O)ccc1O [4'-hydroxy-3'-methoxyacetophenone]
115	Oc1cc(O)c(Cl)cc1Cl [4,6-dichlororesorcinol]
136	CC(C)(C)C(=O)Nc1ccncc1 [4-(2,2,2-trimethylacetamido)pyridine]
